{
  "source": "PubChem BioAssay AID206",
  "about": "(DTP/NCI, 2004)",
  "test_system": "nude mice, HT29 intrarenal xenograft, tumor weight T/C",
  "assay": "NCI In Vivo Anticancer Drug Screen. Data for tumor model HT29;CX-1 Human Adenocarcinoma (MER+) (intrarenal inoculation) in NU/NU Swiss (nude) mice",
  "details": "endpoint: mean tumor weight change, higher = larger tumour",
  "description": "The antitumor activity of compounds was measured in mice bearing transplantable tumors. Survival or tumor size were measured and the results are expressed as the measurement made in the treated group (T) divided by the measurement made in the vehicle treated control group (C). The tumor model used in this assay is HT29;CX-1 Human Adenocarcinoma (MER+) (intrarenal inoculation) in NU/NU Swiss (nude) mice",
  "key": {"[1]": {"details": "dose: 50.0 mg/kg/injection, schedule: Q01DX010 (sc), vehicle: saline"}, "[2]": {"details": "dose: 100.0 mg/kg/injection, schedule: Q01DX010 (sc), vehicle: saline"}, "[3]": {"details": "dose: 200.0 mg/kg/injection, schedule: Q01DX010 (sc), vehicle: saline"}},
  "note": "Values joined by “and” are separate entries in the source; they are usually repeats but may differ in a detail not shown here. Equal values may be shown once. Results filed as inconclusive are left out. Starred links: 1 amine or outer side, 2 acyl side, 3 side chain; linkers in the order of their positions; H or OH if unused. Positions of bridges follow the written chain, without caps; N, C: chain ends. Non-standard residues stand in square brackets, D forms with d. Residues, ends and D or L forms follow the SMILES beside them. Chains are numbered I, II in the order given. Actinocin(1to9) = Cc1c2oc3c(C)ccc(C(=O)[*:2])c3nc-2c(C(=O)[*:1])c(N)c1=O; NMeV = CN[CH](C(=O)O)C(C)C; Aze = O=C(O)[CH]1CCN1; Sar = CNCC(=O)O",
  "data": [
    {"smiles": "Cc1c2oc3c(C)ccc(C(=O)NC4C(=O)NC(C(C)C)C(=O)N5CCCC5C(=O)N(C)CC(=O)N(C)C(C(C)C)C(=O)OC4C)c3nc-2c(C(=O)NC2C(=O)NC(C(C)C)C(=O)N3CCC3C(=O)N(C)CC(=O)N(C)C(C(C)C)C(=O)OC2C)c(N)c1=O", "note": "(stereo not drawn) (I: TV[Aze][Sar][NMeV] / II: TVP[Sar][NMeV]; ester I:1-I:C, II:1-II:C; linker I:N-II:N via Actinocin(1to9); configuration not given here)", "values": [
      {"measurement": "T/C", "setting": "dose: 0.5 mg/kg/injection, schedule: Q04DX004 (sc), vehicle: saline + alcohol", "result": "59 % of control"},
      {"measurement": "T/C", "setting": "dose: 1.0 mg/kg/injection, schedule: Q04DX004 (sc), vehicle: saline + alcohol", "result": "30 % of control"}
    ]},
    {"smiles": "O=C(O)CSc1c(Cl)c(=O)oc2ccc(Cl)cc12", "values": [
      {"measurement": "T/C", "setting": "dose: 300.0 mg/kg/injection, schedule: Q04DX004 (sc), vehicle: Klucel (hydroxypropylcellulose) (HPC)", "result": "99 % of control"}
    ]},
    {"smiles": "CCC[CH2][Sn]1([CH2]CCC)[O]C2C(CO)OC(n3ccc(N)nc3=O)C2[O]1", "note": "(stereo not drawn)", "values": [
      {"measurement": "T/C", "setting": "dose: 3.0 mg/kg/injection, schedule: Q04DX004 (sc), vehicle: Klucel (hydroxypropylcellulose) (HPC)", "result": "27 % of control"},
      {"measurement": "T/C", "setting": "dose: 6.0 mg/kg/injection, schedule: Q04DX004 (sc), vehicle: Klucel (hydroxypropylcellulose) (HPC)", "result": "85 % of control"},
      {"measurement": "T/C", "setting": "dose: 12.0 mg/kg/injection, schedule: Q04DX004 (sc), vehicle: Klucel (hydroxypropylcellulose) (HPC)", "result": "109 % of control"},
      {"measurement": "T/C", "setting": "dose: 24.0 mg/kg/injection, schedule: Q04DX004 (sc), vehicle: Klucel (hydroxypropylcellulose) (HPC)", "result": "76 % of control"}
    ]},
    {"smiles": "O=C(O)CC(NC(=O)CP(=O)(O)O)C(=O)O.[NH-]C1CCCCC1[NH-].[Pt+2]", "note": "(stereo not drawn)", "values": [
      {"measurement": "T/C", "setting": "dose: 6.25 mg/kg/injection, schedule: Q04DX004 (sc), vehicle: dextrose", "result": "97 % of control"},
      {"measurement": "T/C", "setting": "dose: 12.5 mg/kg/injection, schedule: Q04DX004 (sc), vehicle: dextrose", "result": "25 % of control"},
      {"measurement": "T/C", "setting": "dose: 25.0 mg/kg/injection, schedule: Q04DX004 (sc), vehicle: dextrose", "result": "35 % of control"}
    ]},
    {"smiles": "Cn1c(=O)[nH]c2nncnc2c1=O", "values": [
      {"measurement": "T/C", "setting": "dose: 15.0 mg/kg/injection, schedule: Q04DX004 (sc), vehicle: water", "result": "79 % of control and 101 % of control"},
      {"measurement": "T/C", "setting": "dose: 60.0 mg/kg/injection, schedule: Q04DX004 (sc), vehicle: water", "result": "78 % of control and 86 % of control"},
      {"measurement": "T/C", "setting": "dose: 120.0 mg/kg/injection, schedule: Q04DX004 (sc), vehicle: water", "result": "19 % of control"}
    ]},
    {"smiles": "NC(C(=O)O)c1ccc(CBr)cc1", "note": "(stereo not drawn)", "values": [
      {"measurement": "T/C", "setting": "dose: 50.0 mg/kg/injection, schedule: Q04DX004 (sc), vehicle: acid diluted with saline", "result": "76 % of control"},
      {"measurement": "T/C", "setting": "dose: 100.0 mg/kg/injection, schedule: Q04DX004 (sc), vehicle: acid diluted with saline", "result": "70 % of control"},
      {"measurement": "T/C", "setting": "dose: 200.0 mg/kg/injection, schedule: Q04DX004 (sc), vehicle: acid diluted with saline", "result": "65 % of control"},
      {"measurement": "T/C", "setting": "dose: 400.0 mg/kg/injection, schedule: Q04DX004 (sc), vehicle: acid diluted with saline", "result": "52 % of control"}
    ]},
    {"smiles": "Nc1cc2c3c(cccc3c1)C(=O)N(CCN1CCCC1)C2=O", "values": [
      {"measurement": "T/C", "setting": "dose: 50.0 mg/kg/injection, schedule: Q04DX004 (sc), vehicle: saline with Tween-80", "result": "170 % of control"},
      {"measurement": "T/C", "setting": "dose: 100.0 mg/kg/injection, schedule: Q04DX004 (sc), vehicle: saline with Tween-80", "result": "202 % of control"},
      {"measurement": "T/C", "setting": "dose: 200.0 mg/kg/injection, schedule: Q04DX004 (sc), vehicle: saline with Tween-80", "result": "233 % of control"},
      {"measurement": "T/C", "setting": "dose: 400.0 mg/kg/injection, schedule: Q04DX004 (sc), vehicle: saline with Tween-80", "result": "177 % of control"}
    ]},
    {"smiles": "O=C1NC2(CCCCC2)C(=O)N1CCN(CCCl)CCCl", "values": [
      {"measurement": "T/C", "setting": "dose: 6.0 mg/kg/injection, schedule: Q01DX010 (sc), vehicle: saline", "result": "64 % of control"},
      {"measurement": "T/C", "setting": "dose: 24.0 mg/kg/injection, schedule: Q01DX010 (sc), vehicle: saline", "result": "21 % of control and 23 % of control"},
      {"measurement": "T/C", "setting": "dose: 48.0 mg/kg/injection, schedule: Q01DX010 (sc), vehicle: saline", "result": "23 % of control"}
    ]},
    {"smiles": "Cc1cn(C2CC3[O][Sn]([c]4ccccc4)([c]4ccccc4)[O]CC3O2)c(=O)[nH]c1=O", "note": "(stereo not drawn)", "values": [
      {"measurement": "T/C", "setting": "dose: 25.0 mg/kg/injection, schedule: Q01DX010 (sc), vehicle: saline", "result": "60 % of control"},
      {"measurement": "T/C", "setting": "[1]", "result": "60 % of control"},
      {"measurement": "T/C", "setting": "[2]", "result": "79 % of control"},
      {"measurement": "T/C", "setting": "[3]", "result": "55 % of control"},
      {"measurement": "T/C", "setting": "dose: 600.0 mg/kg/injection, schedule: Q04DX004 (sc), vehicle: saline", "result": "94 % of control"},
      {"measurement": "T/C", "setting": "dose: 1200.0 mg/kg/injection, schedule: Q04DX004 (sc), vehicle: saline", "result": "95 % of control"},
      {"measurement": "T/C", "setting": "dose: 2400.0 mg/kg/injection, schedule: Q04DX004 (sc), vehicle: saline", "result": "94 % of control"}
    ]},
    {"smiles": "N=C(N)Sc1ccccn1", "values": [
      {"measurement": "T/C", "setting": "[1]", "result": "89 % of control"},
      {"measurement": "T/C", "setting": "[2]", "result": "100 % of control"},
      {"measurement": "T/C", "setting": "[3]", "result": "41 % of control"},
      {"measurement": "T/C", "setting": "dose: 400.0 mg/kg/injection, schedule: Q01DX010 (sc), vehicle: saline", "result": "74 % of control"}
    ]},
    {"smiles": "CCCCCCCCCCCCSC1=C(Cl)C(=O)C(OC)=C(OC)C1=O", "values": [
      {"measurement": "T/C", "setting": "dose: 75.0 mg/kg/injection, schedule: Q04DX004 (sc), vehicle: saline with Tween-80", "result": "76 % of control"},
      {"measurement": "T/C", "setting": "dose: 150.0 mg/kg/injection, schedule: Q04DX004 (sc), vehicle: saline with Tween-80", "result": "36 % of control"},
      {"measurement": "T/C", "setting": "dose: 300.0 mg/kg/injection, schedule: Q04DX004 (sc), vehicle: saline with Tween-80", "result": "25 % of control"}
    ]}
  ]
}
